We go through nine compounds from patent US9533985B2, “Sulfonamide derivative and medicinal use thereof” (EA Pharma Co., Ltd., priority 2012, dated 2017).

The assay addresses α4β7 integrin (Homo sapiens (Human), UniProt P13612+P26010). As to the kind of experiment: MAdCAM-1/α4β7 integrin binding inhibitory activity evaluation test in the presence of serum (2). It counts as cell-based. To be noted: RPMI-8866 cells binding to mouse MAdCAM-1/Fc, same manner as Test (3), read-out: α4β7 Rank of activity with serum added. Summed up: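 Adhesion of human RPMI-8866 B cells (α4β7-expressing) to plate-bound recombinant mouse MAdCAM-1/Fc in DMEM binding buffer with 4 mM MnCl2 and 50% final human serum, 15–60 min at 30 °C. Bound cells quantified by LDH activity (A490) after lysis; IC50 relative to no-compound binding, duplicate.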

α4β7 integrin, sequence (P13612 34-1032): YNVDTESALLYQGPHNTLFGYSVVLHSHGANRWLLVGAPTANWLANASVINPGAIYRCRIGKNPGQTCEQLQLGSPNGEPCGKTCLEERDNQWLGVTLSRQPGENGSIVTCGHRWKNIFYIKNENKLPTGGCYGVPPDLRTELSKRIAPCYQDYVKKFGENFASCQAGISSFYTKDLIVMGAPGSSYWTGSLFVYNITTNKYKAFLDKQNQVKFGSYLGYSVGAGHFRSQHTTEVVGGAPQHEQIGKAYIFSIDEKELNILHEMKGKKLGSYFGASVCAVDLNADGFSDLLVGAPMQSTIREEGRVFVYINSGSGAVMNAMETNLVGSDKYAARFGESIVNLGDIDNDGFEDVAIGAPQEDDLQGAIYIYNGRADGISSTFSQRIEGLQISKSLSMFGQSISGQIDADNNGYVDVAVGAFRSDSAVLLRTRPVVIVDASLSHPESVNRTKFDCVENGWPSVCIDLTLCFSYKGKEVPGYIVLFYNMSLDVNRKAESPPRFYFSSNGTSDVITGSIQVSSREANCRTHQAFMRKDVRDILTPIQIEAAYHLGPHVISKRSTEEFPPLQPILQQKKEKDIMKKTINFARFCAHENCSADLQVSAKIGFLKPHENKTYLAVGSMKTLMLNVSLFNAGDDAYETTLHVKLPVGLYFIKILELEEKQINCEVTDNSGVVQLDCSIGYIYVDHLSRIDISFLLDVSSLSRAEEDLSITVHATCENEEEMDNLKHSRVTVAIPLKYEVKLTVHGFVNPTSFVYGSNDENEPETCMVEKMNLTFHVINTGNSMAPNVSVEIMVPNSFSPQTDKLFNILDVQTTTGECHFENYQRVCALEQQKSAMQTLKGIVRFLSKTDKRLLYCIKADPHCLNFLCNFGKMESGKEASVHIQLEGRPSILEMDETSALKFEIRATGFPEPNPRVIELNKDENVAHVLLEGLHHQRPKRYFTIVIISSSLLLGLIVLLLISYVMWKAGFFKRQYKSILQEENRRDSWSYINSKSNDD
α4β7 integrin, sequence (P26010 20-798): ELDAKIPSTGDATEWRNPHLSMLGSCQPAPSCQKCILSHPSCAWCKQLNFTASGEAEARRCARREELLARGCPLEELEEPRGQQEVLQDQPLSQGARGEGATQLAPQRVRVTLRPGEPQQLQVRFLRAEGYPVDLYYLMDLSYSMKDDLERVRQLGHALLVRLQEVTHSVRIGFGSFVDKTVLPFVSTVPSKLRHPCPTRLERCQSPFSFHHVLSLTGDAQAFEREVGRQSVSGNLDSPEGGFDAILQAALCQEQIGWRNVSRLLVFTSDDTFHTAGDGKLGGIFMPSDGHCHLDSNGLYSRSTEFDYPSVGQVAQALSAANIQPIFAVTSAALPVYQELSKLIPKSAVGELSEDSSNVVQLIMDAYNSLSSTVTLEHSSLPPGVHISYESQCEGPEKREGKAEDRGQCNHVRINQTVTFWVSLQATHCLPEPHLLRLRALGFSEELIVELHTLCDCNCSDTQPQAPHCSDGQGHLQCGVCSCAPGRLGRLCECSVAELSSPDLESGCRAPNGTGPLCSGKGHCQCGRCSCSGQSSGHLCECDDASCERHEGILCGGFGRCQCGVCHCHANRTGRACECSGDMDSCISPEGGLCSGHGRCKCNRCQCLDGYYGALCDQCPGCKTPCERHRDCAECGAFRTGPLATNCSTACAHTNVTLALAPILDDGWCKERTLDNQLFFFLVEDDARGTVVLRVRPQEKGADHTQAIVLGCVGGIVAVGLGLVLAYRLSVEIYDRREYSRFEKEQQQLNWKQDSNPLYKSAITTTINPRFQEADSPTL

On to `Cn1c(=O)n(-c2ccc(C[C@H](NC(=O)c3cc(F)c(NS(=O)(=O)c4ccc(C(=O)C5CC5)cc4)cc3F)C(=O)O)nc2)c(=O)c2ccncc21` [Example 223, N-[4-({[4-(Cyclopropylcarbonyl)phenyl]sulfonyl}amino)-2,5-difluorobenzoyl]-3-[5-(1-methyl-2,4-dioxo-1,4-dihydropyrido[3,4-d]pyrimidin-3(2H)-yl)pyridin-2-yl]-L-alanine], for which the IC50 is 50 to 200 nM. To `Cn1c(=O)n(-c2ccc(C[C@H](NC(=O)c3cc(F)c(NS(=O)(=O)c4ccccn4)cc3F)C(=O)O)nc2)c(=O)c2ccncc21` [Example 138, N-{2,5-Difluoro-4-[(pyridin-2-yl-sulfonyl)amino]benzoyl}-3-[5-(1-methyl-2,4-dioxo-1,4-dihydropyrido[3,4-d]pyrimidin-3(2H)-yl)pyridin-2-yl]-L-alanine] belongs 50 to 200 nM; to `Cn1ccc(=O)n(-c2ccc(C[C@H](NC(=O)c3c(F)cc(NS(=O)(=O)c4ccc(C(=O)NC5CCCCC5)cc4)cc3F)C(=O)O)cc2)c1=O` [Example 169, N-{4-[({4-[(Cyclohexylamino)carbonyl]phenyl}sulfonyl)amino]-2,6-difluorobenzoyl}-4-(3-methyl-2,6-dioxo-3,6-dihydropyrimidin-1(2H)-yl)-L-phenylalanine], 10 to 50 nM. On to `CCNC(=O)c1ccc(S(=O)(=O)Nc2cc(F)c(C(=O)N[C@@H](Cc3ccc(-n4c(=O)cc(C)n(C)c4=O)cc3)C(=O)O)c(F)c2)cc1` [Example 155, 4-(3,4-Dimethyl-2,6-dioxo-3,6-dihydropyrimidin-1(2H)-yl)-N-{4-[({4-[(ethylamino)carbonyl]phenyl}sulfonyl)amino]-2,6-difluorobenzoyl}-L-phenylalanine], for which the IC50 was 10 to 50 nM. To `Cn1c(=O)n(-c2ccc(C[C@H](NC(=O)c3cc(F)c(NS(=O)(=O)c4cccs4)cc3F)C(=O)O)cc2)c(=O)c2ccncc21` [Example 213, N-{2,5-Difluoro-4-[(2-thienylsulfonyl)amino]benzoyl}-4-(1-methyl-2,4-dioxo-1,4-dihydropyrido[3,4-d]pyrimidin-3(2H)-yl)-L-phenylalanine] belongs 10 to 50 nM. Next, `Cn1c(=O)n(-c2ccc(C[C@H](NC(=O)c3cc(F)c(NS(=O)(=O)c4ccc(-n5ccnn5)cc4)cc3F)C(=O)O)nc2)c(=O)c2ccncc21` [Example 226, N-[2,5-Difluoro-4-({[4-(1H-1,2,3-triazol-1-yl)phenyl]sulfonyl}amino)benzoyl]-3-[5-(1-methyl-2,4-dioxo-1,4-dihydropyrido[3,4-d]pyrimidin-3(2H)-yl)pyridin-2-yl]-L-alanine]: 10 to 50 nM. In the case of `Cn1c(=O)n(-c2ccc(C[C@H](NC(=O)c3c(F)cc(NS(=O)(=O)c4ccc(-c5ccco5)cc4)cc3F)C(=O)O)nc2)c(=O)c2ccncc21` [Example 148, N-[2,6-Difluoro-4-({[4-(2-furyl)phenyl]sulfonyl}amino)benzoyl]-3-[5-(1-methyl-2,4-dioxo-1,4-dihydropyrido[3,4-d]pyrimidin-3(2H)-yl)pyridin-2-yl]-L-alanine], the IC50 lay in the range of 10 to 50 nM.

Regarding `Cn1c(=O)n(-c2ccc(C[C@H](NC(=O)c3ccc(NS(=O)(=O)c4ccc5c(c4)C(=O)CC5)cc3F)C(=O)O)nc2)c(=O)c2ccncc21` [Example 144, N-(2-Fluoro-4-{[(3-oxo-2,3-dihydro-1H-inden-5-yl)sulfonyl]amino}benzoyl)-3-[5-(1-methyl-2,4-dioxo-1,4-dihydropyrido[3,4-d]pyrimidin-3(2H)-yl)pyridin-2-yl]-L-alanine], the IC50 was in the range of 50 to 200 nM. Regarding `CCNC(=O)c1ccc(S(=O)(=O)Nc2cc(F)c(C(=O)N[C@@H](Cc3ccc(-n4c(=O)c5c(ncn5C)n(C)c4=O)cc3)C(=O)O)c(F)c2)cc1` [Example 152, 4-(3,7-Dimethyl-2,6-dioxo-2,3,6,7-tetrahydro-1H-purin-1-yl)-N-{4-[({4-[(ethylamino)carbonyl]phenyl}sulfonyl)amino]-2,6-difluorobenzoyl}-L-phenylalanine], the IC50 was no more than 10 nM.
